Patent US10548906B2, “Methods of promoting hepatic regeneration” (Intercept Pharmaceuticals, Inc., priority 2015, dated 2020)
Entries after “also recorded” stand apart in the source; their conditions may differ.

Columns and labels:
[1] = tested on: New Zealand White rabbits; assay: Portal vein embolization (PVE) in rabbits, 6-ECDCA vs vehicle (Example 4); assay type: in vivo, rabbit
From the text: Female New Zealand White rabbits with a mean weight of 3.0±0.5 kg were acclimatized for 1 week under standardized laboratory conditions in a temperature-controlled room. The animals were individually housed, had free access to standard laboratory food and water, and were subjected to a 12-h light/dark cycle per day. The rabbits were divided into two groups receiving 6-ECDCA and two control groups receiving vehicle. Specifically, the PVE study rabbits were divided into following groups: • Group 1: Normal diet (6-ECDCA 10 mg/kg/day, oral gavage) (N=6), animals sacrificed at day 7, post PVE. • Group 2: Normal diet (Vehicle) (N=6), animals sacrificed at day 7 post PVE. • Group 3: Normal diet (6-ECDCA 10 mg/kg/day, oral gavage) (N=6), animals sacrificed at day 3, post PVE. • Group 4: Normal diet (Vehicle) (N=6), animals sacrificed at day 3, post PVE.
The rabbit liver consists of four liver lobes, three of which are positioned cranially, with the fourth located caudally. In the rabbit PVE model the cranial liver lobes, which account for approximately 80% of the total liver volume, were embolized. The rabbit was placed in a supine position after subcutaneous injection of 0.03 mg/kg buprenorphine and 0.02 mg/kg enrofloxacin. Rabbits were given enrofloxacin 0.02 mg/kg subcutaneously once a day for 3d postoperatively. Animals were anesthetized by intramuscular injection of 25.0 mg/kg ketamine and 0.2 mg/kg dexmedetomidine. Isoflurane 1%-2% with O2/air (1:0.7 L/min) was used to maintain anesthesia. Heart rate and arterial oxygen saturation were measured by pulse oximetry continuously throughout the procedure.
To identify the individual portal branches, portography was performed. After passing the portal branch to the caudal liver lobe, a microcatheter was positioned into the main portal branch supplying the cranial liver lobes. Animals received an initial mixture of contrast (Visipaque) and 90-180 μm polyvinyl alcohol (PVA) particles, followed by injection of 300-500 μm PVA particles until cessation of flow and placement of three platinum coils (6 mm). Portography directly after PVE confirmed total occlusion of the cranial portal blood flow in the embolization groups. The hypertrophy and atrophy responses of the caudal and cranial lobes were measured using CT volumetry before embolization and on day 3 and 7 post-embolization.
Multiphasic CT scans were performed using a 64-slice CT scan (Brilliance 64-channel; Philips, Eindhoven, The Netherlands). Rabbits were placed in supine position. After a blank series, a contrast enhanced scan was performed 15 s (arterial phase), 30 s (portal phase), and 45 s (venous phase) after contrast injection (4 mL Visipaque), followed by 3 mL NaCl. 3D-reconstructions of the liver were made using reconstructed 2 mm axial slices. The total liver and the cranial and caudal liver lobes were manually delineated and total liver volume (TLV) and the caudal liver volume (CLV) and cranial liver volume (CrLV) were calculated.
The following measurements were carried out: (1) body weight, (2) computed tomography of the embolized and non-embolized lobes, (3) expression of cell cycle-related and bile salt homeostasis-related transcripts in the liver, (4) expression of ileal transcripts, and (5) serum total bile salt concentration.
Serum bile salt concentration was determined at baseline, at 3 h, and at days 1, 3, and 7 post PVE. […]

FXR = assay: Bile salt homeostasis/proliferation related transcript levels in liver after PVE (Example 5a); assay type: in vivo, rabbit
Method: Adult female rabbits received vehicle or the FXR agonist obeticholic acid (OCA; 10 mg/kg, daily oral gavage) for 7 days prior to, and after embolization (day 0) of the cranial liver lobes. Effectiveness of PVE was confirmed by portography, and caudal liver volume (CLV) was analyzed by CT-volumetric analysis at days −7, −1, +3 and +7. Rabbits were sacrificed at day +3 and +7 (n=5-6 per group).

Wistar rats = assay: Bile volume and HPLC bile acid analysis in rBDL rats prior to PHx (Example 6); assay type: in vivo, rat
Method: At baseline (i.e., directly before PHx) and one to five days after PHx, animals were euthanized under isoflurane anesthesia by exsanguination. Blood samples were collected from the caval vein in heparin-anticoagulated vacutainers (BD, Franklin Lakes, N.J.) and centrifuged for 10 min (3000×g, 4° C.). In rBDL animals sacrificed at baseline, bile was aspirated with a syringe from the dilated extrahepatic bile duct, weighed, and stored at −80° C. The liver and ileum were excised, weighed, loafed, and either fixed in a 10% (vol/vol) neutralized formalin solution (J. T. Baker, Center Valley, Pa.), snap-frozen in liquid nitrogen and stored at −80° C., or collected in RNAlater (Qiagen, Venlo, the Netherlands) and stored at −20° C. Liver regrowth was calculated from the regenerated liver mass, and was expressed as percentage of total liver mass prior to PHx. The projected remnant liver mass was calculated using the weight of the resected liver segments, which represent 70% of the total liver mass. Dry liver weights were measured to correct for hepatic water content [Kloek 2010a].
Bile acids were separated and quantified by reverse-phase high-performance liquid chromatography (HPLC) [Lionarons 2016]. Bile or plasma samples (20 μL) were deproteinated by the addition of 5 volumes of acetonitrile. Following centrifugation (10 min at 20,000×g), solvent was evaporated from supernatants and bile salts were solubilized in 200 μL of 25% methanol. For liver homogenates, 100 mg liver tissue was sonicated for 30-90 s in 500 μL of water. One mL of acetonitrile was added for protein precipitation. Samples were subsequently centrifuged at 20,000×g for 10 min, after which the supernatant was used for analysis. Results were corrected for homogenate protein content. One hundred μL of sample was applied to a Hypersil C18 HPLC column (Thermo Scientific, Waltham, Mass.) operated at 20° C. […] Detection was done using a Nano Quantity Analyte Detector QT-500 (Quant Technologies, Blaine, Minn.). Bile acids were quantified using a separate calibration curve per species. […]

[2] = tested on: New Zealand White rabbits; assay: PVE-induced liver growth in rabbits, CT volumetry and body weight (Example 5)
Method: PVE of the cranial liver lobes was performed using polyvinyl alcohol particles and coils at day 0. Caudal liver volume (CLV) was analyzed by CT volumetry at days −7, −1, +3 and +7. Liver function (i.e. mebrofenin uptake) was quantified in subgroups of animals using hepatobiliary scintigraphy. Additional parameters analyzed were plasma transaminase levels, histological scoring of H&E- and Ki67-stained liver sections, and FXR target gene expression.
Six groups of six rabbits were planned for PVE. […] Treatment was started 7 days before PVE, and continued until sacrifice at 3 or 7 days after PVE.
Under digital subtraction portography a Renegade 3F microcatheter (Boston Scientific, Natick, Mass.) with a Transend-ex 0.36 mm×182-cm guide wire (Boston Scientific) was positioned in the main portal branch to the cranial liver lobes. Polyvinyl alcohol particles (90-180 μm and 300-500 μm in diameter, Cook, Bloomington, Ind.) and 2 fibered platinum coils (4.0 and 6.0 mm; Boston Scientific) were infused through the catheter to occlude the portal branches to the cranial lobes. PVE was confirmed by portography, and the mesenteric vein was closed using a ligature. The abdomen was closed in two layers. Baytril was administered daily for 3 days following PVE.
Multiphase CT-scans (Brilliance 64, Philips, Eindhoven, The Netherlands) were performed at day −7, −1, +3, and +7. Animals (n=18 per treatment group) were anesthetized and a 22G catheter was placed in the lateral ear vein. A baseline scan was made and 3 mL of contrast solution (Visipaque, GE Healthcara, Waukesha, Wis.) was injected. Arterial, portal and venous phase scans were made after 15, 30, 45 seconds respectively. Volumetric analysis was performed on 3D reconstruction of 5-mm axial slices using manual delineation. Caudal liver volume (CLV) and total liver volume (TLV) were determined and increase in CLV was determined using the following formula:
The same formula was used to calculate the decrease in cranial liver volume (CrLV; CrLV=TLV−CLV). Increase in CLV and decrease in CrLV was calculated using day −1 values as baseline. […] Regeneration rate was calculated using the formula:

[3] = after seven days of OCA treatment

`CC[C@H]1[C@@H](O)[C@@H]2[C@H](CC[C@]3(C)[C@@H]([C@H](C)CCC(=O)O)CC[C@@H]23)[C@@]2(C)CC[C@@H](O)C[C@@H]12` [Compound 1, 3α,7α-dihydroxy-6α-ethyl-5β-cholanic acid] was tested, and the “increase in caudal liver volume (CLV)” value ([1]; CT, days 3 and 7 post embolization, FIG. 3) was “accelerates hypertrophy of the non-embolized lobe”, the “concentration of serum bile salts vs control” value ([1]; day 1 post PVE, FIG. 8) was “relatively lower” and the “body weight, difference vs vehicle” value ([1]; each day of the study, FIG. 2) was “not statistically significant”. For the same compound, the “decrease in cranial liver lobe volume (CrLV)” value ([1]; embolized lobe, FIG. 5) was “does not affect atrophy of the embolized lobe”, the “liver regeneration and liver mass” value ([1]; rabbit PVE model, 10 mg/kg/day oral gavage) was “accelerates liver regeneration and increases liver mass” and the “expression of Cdc25b vs controls” value (FXR; atrophic liver segments) was “+1.1 fold”. The “expression of Cdc25b vs controls” value (FXR; hypertrophic liver segments) was “+1.6 fold”, the “expression of Cyp7a1 vs controls” value (FXR; hypertrophied segments, day +3) was −7.1 fold and the “expression of Slc51b vs controls” value (FXR; hypertrophied segments, day +3) was “+6.5 fold”. For the same compound, the “bile retrieved from the extrahepatic bile duct” value (Wistar rats; [3]) was “substantial increase”, the “biliary BA output” value (Wistar rats; [3]) was “elevated” and the “hepatic BA load / content” value (Wistar rats; prior to PHx, rBDL, listed as OCA) was “reduction; also recorded: effectively counteracted”. The “increase of CLV relative to vehicle controls” value ([2]; 3 days after PVE) was 2.2 fold, the “increase in caudal liver volume (CLV)” value ([2]; 3 days after PVE, relative to day −1, N=17) was 56.1±20.3% and the “increase of CLV relative to vehicle controls” value ([2]; day 7 after PVE) was 1.5 fold. The “increase in caudal liver volume (CLV)” value ([2]; day 7 after PVE, relative to day −1, N=11) was 102.0±38.2%, the “total liver volume (TLV) corrected for body weight” value ([2]; pre-treatment period day −7 until day −1, 10 mg/kg daily oral) was “did not induce spontaneous liver growth” and the “body weight decrease after PVE” value ([2]; vs vehicle) was “to a similar extent”.
